Here are results for four molecules from ChEMBL document CHEMBL1138437, “Synthesis and evaluation of novel neamine derivatives effectively targeting to RNA” (Bioorg Med Chem Lett, 2009).

Assay [1] has as its target Nucleic Acid. The assay can be described thus: Binding affinity to A site of biotinylated 16S rRNA (unknown origin) by surface plasmon resonance analysis. The assay is classed as nucleic-acid assay. For orientation: SPR reads the build-up and loss of mass on a sensor chip optically.
In assay [2] the target is Nucleic Acid. The assay can be described thus: Binding affinity to biotinylated HIV1 trans-activation response element RNA by surface plasmon resonance analysis. It is filed as nucleic-acid assay, Human immunodeficiency virus 1.
Another assay relates to Pseudomonas aeruginosa. The experiment in a line: Antibacterial activity against Pseudomonas aeruginosa ATCC 27853 after 18 hrs. Particulars: ATCC 27853, 18 h. It is filed as functional.
A further assay has as its system Staphylococcus aureus. The experiment in a line: Antibacterial activity against Staphylococcus aureus ATCC 29213 after 18 hrs. Conditions: ATCC 29213, 18 h. It is filed as functional.
In the next assay the test system is Escherichia coli. The assay can be described thus: Antibacterial activity against Escherichia coli ATCC 25922 after 18 hrs. The assay is classed as functional. Particulars: ATCC 25922, 18 h.

Broadly, the Kd is the concentration at which binding is half-saturated. Low readings indicate a tighter complex, high ones a looser complex. By MIC is commonly meant the smallest concentration in the dilution series that meets the test's criterion for growth inhibition. High values mean weaker potency, low ones greater potency.

In brackets after ≈: the same amount, converted by molar mass.

For `NCCN[C@H]1[C@@H](O)[C@H](N)C[C@H](N)[C@@H]1O[C@H]1O[C@H](CN)[C@@H](O)[C@H](O)[C@H]1N`, the Kd is 7 µM at Nucleic Acid [1] and 14 µM at Nucleic Acid [2]. Besides, the values for the MIC with Pseudomonas aeruginosa, against Staphylococcus aureus and in the assay on Escherichia coli were 50 µM (≈ 18.2 µg/mL), more than 100 µM and 100 µM (≈ 36.4 µg/mL), respectively.

`N=C(N)NCCC[C@H](N)C(=O)NCCN[C@H]1[C@@H](O)[C@H](N)C[C@H](N)[C@@H]1O[C@H]1O[C@H](CN)[C@@H](O)[C@H](O)[C@H]1N`: the values for the Kd at Nucleic Acid [1] and at Nucleic Acid [2] were 2 µM and 3 µM, respectively. For the same molecule, the minimal inhibitory concentration (MIC) in the assay on Pseudomonas aeruginosa is more than 100 µM; against Staphylococcus aureus, more than 100 µM; with Escherichia coli, 100 µM (≈ 52.1 µg/mL).

Regarding `NCCCC[C@H](N)C(=O)NCCN[C@H]1[C@@H](O)[C@H](N)C[C@H](N)[C@@H]1O[C@H]1O[C@H](CN)[C@@H](O)[C@H](O)[C@H]1N`, the Kd at Nucleic Acid [1] was 1 µM; on Nucleic Acid [2] it was 2 µM. Further, the MIC against Pseudomonas aeruginosa was more than 100 µM; against Staphylococcus aureus, 25 µM (≈ 12.3 µg/mL); in the assay with Escherichia coli, 50 µM (≈ 24.6 µg/mL).

As for `NC[C@H]1O[C@H](O[C@H]2[C@H](O)[C@@H](O)[C@H](N)C[C@@H]2N)[C@H](N)[C@@H](O)[C@@H]1O` [NEAMINE], the Kd at Nucleic Acid [1] stood at 19 µM; on Nucleic Acid [2], 24 µM. In addition, the values for the MIC against Pseudomonas aeruginosa, with Staphylococcus aureus and in the assay on Escherichia coli were more than 100 µM, 50 µM (≈ 16.1 µg/mL) and 50 µM (≈ 16.1 µg/mL), respectively.
